One data set deals with T1, NLuc-hH2R (Homo sapiens, UniProt P25021).
T1 construct: membrane signal peptide of the murine 5HT3A receptor (N); expressed in transfected cells
The data set can be described thus: Real-time NanoBRET kinetic binding experiments. On the procedure: The cell line stably expressing the NLuc-hH2R construct was detached from the cell culture dishes after reaching ~ 80% confluency by treatment with trypsin/EDTA (0.05%/0.2%, for 2 min at 37 °C) and was centrifuged (600×g, 5 min). The cell pellet was then resuspended in Leibovitz’ L-15 medium (L-15), supplemented with 5% FCS + 10 mM HEPES, and 1.0 × 10^5 cells/well were seeded in 70 µL (saturation and competition binding) or 80 µL (kinetic experiments) of assay medium into white 96-well cell-Grade™ plates (Brand GmbH & Co. KG, Wertheim, Germany). The cells were then incubated at 37 °C in a humidified atmosphere (no additional CO2) overnight. For saturation binding experiments, serial dilutions (tenfold concentrated) of the fluorescent ligands (8–10) and famotidine (4, 300-fold excess over the respective concentration of fluorescent ligand, non-specific binding) were prepared in dilution buffer (L-15 + 2% BSA + 10 mM HEPES). 10 µL of the fluorescent ligand dilution and 10 µL of L-15 (total binding) or the dilution of 4 (non-specific binding) were added to the cells. After 60 min incubation time at 27 °C, 10 µL of the substrate furimazine, which was diluted according to manufacturer’s protocol beforehand, were added. After 5 min of equilibration time at 27 °C, the measurement was started. Competition binding experiments were performed as described above using one fixed concentration of fluorescent ligand 8 (c = 50 nM) and varying concentrations of the competitors 1–4, 11, 12, that were added at the same time. Kinetic measurements were performed as follows: 10 µL of L-15 (for total binding) or 4 (300-fold excess, c = 15 µM, non-specific binding) were added to the cells. After addition of the diluted substrate, the plate was placed inside the reader for 5 min to equilibrate. To start association 50 µL of a threefold concentrated solution of the fluorescent ligand 8 (cfinal = 50 nM) were added to the adherent cells and the plate was measured for 60 min. Dissociation experiments were conducted in wells, which have been preincubated with 8 as described above for association experiments. To initiate dissociation, 50 µL of a fourfold concentrated solution of 4 (300-fold excess, cfinal = 15 µM) were added to the cells and the measurement was performed for 4 h. All measurements were performed on a TECAN InfiniteLumi plate reader (TECAN, Grödig, Austria) at 27 °C using the Blue2 NB (460 nm ± 35 nm, bandpass) and the Red NB (> 610 nm, longpass) filter combination with an integration time of 100 ms. For the kinetic experiments, integration time was increased to 500 ms for both channels to reduce noise. BRET ratios were calculated by dividing the acceptor emission (red NB) by the donor luminescence (Blue2 NB).
For kinetic experiments, association experiments were fitted with the “one-phase association” fit yielding kobs, whereas the dissociation experiments were fitted assuming a “one-phase decay” model resulting in koff. The association rate constant kon was calculated using the following equation: kon = (kobs − koff)/c(ligand); c(ligand) = 50 nM. Dissociation half-life t1/2 was calculated applying the following formula: t1/2 = ln(2)/koff.The kinetic equilibrium dissociation constant Kd(kin) was calculated as follows: Kd(kin) = koff/kon. The errors for kon, t1/2 and Kd(kin) were calculated according to the Gaussian law of error propagation. All experimental data were analyzed using Prism 8 software (GraphPad, San Diego, CA, USA).

Data set [1] in a line: Chemical stability in binding buffer (HPLC). Format: physicochemical. Particulars: binding buffer pH 7.4, rt, 96 h incubation. On the procedure: The chemical stability of the fluorescent H2R ligands UR-KAT478 (8), UR-KAT515 (9) and UR-KAT514 (10) was investigated at physiological pH (7.4) in binding buffer (12.5 mM MgCl2, 1 mM EDTA and 75 mM Tris/HCl, pH 7.4)^1 and in case of UR-KAT514 (10) as well in a mixture of DMSO/binding buffer 1:1. Incubation was started by addition of 27.5 μL of a 2.5 mM solution of the respective compounds in DMSO/Millipore H2O 1:1, which were freshly prepared from a 5 mM stock solution in DMSO, to 522.5 μL of binding buffer or DMSO/binding buffer 1:1 yielding a final concentration of […]. The samples were shaken for up to 4 days at 700 rpm. After indicated time periods, a 70 μL aliquot was taken and diluted with 70 µL of a mixture of MeCN, Millipore H2O and 10% aqueous TFA (60:90:1). Prior to HPLC analysis, the samples were stored at -20 °C. 50 μL of the resulting solution were analyzed by HPLC as described in the experimental section. The absorption was detected at 220 nm. The blank HPLC run was performed under identical conditions without any ligand.

Molecules are shown by their SMILES. Where “and” joins values, the source holds several entries; their conditions need not be identical. Equal values may be shown once.

T1 sequence (P25021 whole entry): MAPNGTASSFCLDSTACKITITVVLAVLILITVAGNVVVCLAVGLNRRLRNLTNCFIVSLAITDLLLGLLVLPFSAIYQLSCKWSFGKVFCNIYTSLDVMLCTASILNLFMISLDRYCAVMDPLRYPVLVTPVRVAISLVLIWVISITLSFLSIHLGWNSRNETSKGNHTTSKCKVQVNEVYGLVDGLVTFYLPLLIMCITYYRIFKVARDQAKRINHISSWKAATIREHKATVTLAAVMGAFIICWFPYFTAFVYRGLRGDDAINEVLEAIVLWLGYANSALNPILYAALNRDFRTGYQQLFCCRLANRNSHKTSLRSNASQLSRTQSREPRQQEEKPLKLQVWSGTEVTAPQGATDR

As to `Cc1cc(/C=C/c2cc3c4c(c2)CCCN4CCC3)cc(C)[n+]1CCCCNc1c(NCCCOc2cccc(CN3CCCCC3)c2)c(=O)c1=O` [Compound 8, (E)-1-(4-((3,4-Dioxo-2-((3-(3-(piperidin-1-ylmethyl)phenoxy)propyl)amino)cyclobut-1-en-1-yl)amino)butyl)-2,6-dimethyl-4-(2-(2,3,6,7-tetrahydro-1H,5H-pyrido[3,2,1-ij]quinolin-9-yl)vinyl)pyridin-1-ium], the “Time to full association (fully bound to the receptor)” value at NLuc-hH2R (50 nM of 8) was “approximately 30 min”. Also, at NLuc-hH2R (300-fold excess famotidine (15 µM), after 60 min preincubation with 50 nM 8), the “Amount of ligand displaced within 240 min” value is listed as 35–40%. The Kd (in general, the constant that tells how readily two partners part at equilibrium) on NLuc-hH2R (Kd(kin) = koff/kon) amounted to 1.3 ± 0.16 nM. Also, the kobs at NLuc-hH2R (association of 8, c = 50 nM, mean ± SEM, four experiments) was 0.093 ± 0.009 min⁻¹. Further, the koff (commonly a measure of how fast the partners let go of each other) at NLuc-hH2R (dissociation started with famotidine 15 µM after 60 min preincubation with 50 nM 8) was 3.83e-05 s⁻¹. In addition, the kon (commonly a measure of how fast the partners come together) at NLuc-hH2R (kon = (kobs − koff)/c(ligand), c = 50 nM, read-out: kon (association rate constant) (converted)) was 30000 M⁻¹ s⁻¹. Further, the “Dissociation half-life t1/2” value on NLuc-hH2R (t1/2 = ln(2)/koff) was 5 h and 5.007 ± 0.3317 h. The “Chemical stability (decomposition)” value in data set [1] is reported as “no decomposition”.

Source of the values: paper PMC7414126 (Scientific Reports, 2020).
